Laboratory results reported in patent US11191820B2, “Method for inducing early T memory response with short peptides anti-tumor vaccine” (OSE IMMUNOTHERAPEUTICS, priority 2015, dated 2021).

Tests used:
Type in all cases: in vivo, human
central memory T cells [1] = assay: Cultured IFN-γ ELISPOT after 10-day in vitro stimulation of PBMC, phase 1/2 NSCLC trial of OSE-2101; design: key to net SFC of vaccine positive CTL responses: —, indicates SFC response did not meet criteria and vaccine response was negative; conditions: for Mean SFC / No. Positive Responses: 6 NSCLC patients
Method: (§1) Clinical study design. Both trials were designed as phase 1/2, open label, multi-center, single dose, multiple administration studies to evaluate the safety and immunogenicity of the OSE-2101 immunotherapy. Patients were treated with 1 ml OSE-2101 every 3 weeks for a total of six doses. Each dose was administered subcutaneously in the same vicinity in the deltoid or upper thigh region, or at a contralateral site if local side-effects were observed. The study duration for each completed patient was 18 weeks. Clinical responses or patient survival were not measured in either phase 1/2 studies.
(§2) Clinical sample processing. Blood or leukapheresis product was obtained from patients at the pre-treatment, the Week 9 and Week 18 time points, 3 weeks after the third and sixth dose of OSE-2101 respectively. Peripheral blood mononuclear cells (PBMC) were isolated from samples within 24 hours of collection using a FICOLL-PAQUE density gradient and cryopreserved in containers designed to ensure optimal freezing (Mr. Frosty, Nalgene). For use, cells were rapidly thawed at 37° C. then transferred to human AB serum-containing medium for work-up.
(§3) Measurement of central T memory cells responses and T effector memory cells. The CTL responses in 16 total patients (10 colon and six NSCLC) were monitored for CTL responses against each epitope and against the wild-type epitope of epitopes analogs. For each patient, the pre-treatment, Week 9 and Week 18 time points were batch-tested in the same experiment to allow pre- versus post-treatment response comparison in the same experiment. Central T memory cells responses were measured using an IFN-γ enzyme-linked immunospot (cultured ELISPOT) assay following in vitro stimulation of PBMC for 10 days with each vaccine epitope. Briefly, PBMC from each time point were stimulated on day 0 with 10 μg/ml of each epitope individually in replicate in 48-well culture plates (2×10^6 PBMC/well). All cultures were fed with rIL-2 (Endogen, Woburn, Mass.; 10 U/ml final concentration) on days 1, 4 and 7. Ten days after initiation of culture, cells were harvested and tested for activity against specific vaccine peptides and corresponding wild-type peptides of vaccine analogs in the T memory ELISPOT assay. Cells were tested in Millipore IP 96-well plates pre-coated with mouse anti-human IFN-γ antibody (Mabtech USA, Cincinnati, Ohio). Five×10^4 cells and 1.25×10^4 cells from each culture were plated in triplicate wells together with 10^5 irradiated autologous PBMC and 10 μg/ml peptide. As a control, CTL were also tested against an irrelevant HLA-A2.1-binding HBV peptide. After 20 hours incubation, T memory ELISPOT plates were developed by performing sequential incubations with biotinylated anti-human IFN-γ antibody (Mabtech USA), Avidin-Peroxidase Complex (APC, Vector Laboratories, Burlingame, Calif.), and 3-amino-9-ethyl carbazole (AEC) substrate (Sigma Aldrich, St. Louis, Mo.). Spot-forming cells (SFC) were enumerated using a computer-assisted image analysis system (Zeiss KS ELISPOT Reader, Carl Zeiss MicroImaging, Thornwood, N.J.). Data is reported as the net SFC per 5×10^4 cells after subtracting spots induced with the irrelevant HBV peptide.

central memory T cells [2] = assay: Cultured IFN-γ ELISPOT after 10-day in vitro stimulation of PBMC, phase 1/2 colon cancer trial of OSE-2101; design: key to net SFC of vaccine positive CTL responses: —, indicates SFC response did not meet criteria and vaccine response was negative; conditions: for Mean SFC: 10 colon patients
Method: as §1, §2, §3

central memory T cells [3] = assay: Central memory T cell cultured ELISPOT, phase 2 trial in advanced NSCLC
Method: CTL Immune responses measured though cultured Elispot. The immunogenicity was measured in Phase 2 clinical trial on cryopreserved PBMC from each test sample were thawed in 5% human culture medium (RPMI-1640 medium with 25 mM HEPES, supplemented with 5% human AB serum, 4 mM L-glutamine, 0.5 mM sodium pyruvate, 0.1 mM MEM non-essential amino acids, 100 μg/ml streptomycin, and 100 U/ml penicillin) containing 30 μg/ml DNAase. After centrifugation for 5 minutes at 1200 rpm, the cell pellets were resuspended in 5% human culture medium and washed 2 times. For the central Memory T cell cultured ELISPOT assay, 2×10^6/ml PBMC were placed in replicate wells in a 48-well plates and stimulated for 10 days with 10 μg/ml of each peptide. As a positive control, PBMC were also stimulated with a pool of recall viral peptides. Human rIL2 (10 U/ml) was added to the peptide-stimulated cultures at day 1, day 4 and day 7. After 10 days the stimulated cells were harvested and plated at a concentration of 5×10^4/well. Assay wells also received irradiated autologous PBMC (1×10^5/well) and 10 μg/ml peptide, either the vaccine peptide, irrelevant peptide or positive control peptides. Cells stimulated in vitro with each analog epitope were also tested against the corresponding wild-type epitope.
Data analysis and acceptance criteria. Mean and standard deviation (SD) of spots in replicate wells were calculated in all assays by transferring raw ELISPOT data from each experiment to an Excel-based computer program. Positive vaccine-induced T-cell responses were determined according to the criteria described below.
Acceptance Criteria for peptide-Induced specific T-cell response through central memory T cells: The positive criteria for CTL responses used in the phase 2 trial was identical to the criteria in the phase 1/2 trials which was established prospectively after analyzing the variability of pre-treatment responses in patients against each vaccine epitope and the irrelevant HBV control epitope. A positive peptide-induced CTL/T memory response to a given epitope met all of the following conditions: 1) was greater than 5 SFC above the irrelevant epitope response, 2) was greater than the mean SFC of the irrelevant epitope response, plus 2 SD, and 3) was two-fold greater than the SFC response in the pre-vaccination sample from the same patient, plus 2 SD. The inclusion of “plus two standard deviations” was used to accommodate the assay variability and served to increase the criteria stringency.

How did the “Mean SFC” value (central memory T cells [1]; Week 9) turn out when IMIGHLVGV [CEA.691H5 A] was run?
Its value is 84.2 SFC per 50,000 cells.

And the “No. Positive Responses” value (central memory T cells [1]; Week 9)?
The value was 2.

And the “Mean SFC” value (central memory T cells [1]; Week 18)?
Its value is 132.7 SFC per 50,000 cells.

What about the “No. Positive Responses” value (central memory T cells [1]; Week 18) of the same sequence?
The value was 3.

And the “net SFC of vaccine positive CTL responses” value (from here on “net SFC”) (central memory T cells [1]; NSCLC patient 201, Week 9)?
The value was “—”.

And the “net SFC” value (central memory T cells [1]; NSCLC patient 201, Week 18)?
The value was “—”.

And the “net SFC” value (central memory T cells [1]; NSCLC patient 502, Week 9)?
The value was “—”.

And the “net SFC” value (central memory T cells [1]; NSCLC patient 502, Week 18)?
The value was “—”.

What about the “net SFC” value (central memory T cells [1]; NSCLC patient 504, Week 9) of the same sequence?
Its value is 42.7 SFC per 50,000 cells.

And the “net SFC” value (central memory T cells [1]; NSCLC patient 504, Week 18)?
The value was 284.0 SFC per 50,000 cells.

What about the “net SFC” value (central memory T cells [1]; NSCLC patient 505, Week 9) of the same sequence?
Its value is “—”.

What about the “net SFC” value (central memory T cells [1]; NSCLC patient 505, Week 18) of the same sequence?
The value was 45.3 SFC per 50,000 cells.

What about the “net SFC” value (central memory T cells [1]; NSCLC patient 532, Week 9) of the same sequence?
Its value is 125.7 SFC per 50,000 cells.

And the “net SFC” value (central memory T cells [1]; NSCLC patient 532, Week 18)?
Its value is “—”.

And the “net SFC” value (central memory T cells [1]; NSCLC patient 651, Week 9)?
Its value is “—”.

And the “net SFC” value (central memory T cells [1]; NSCLC patient 651, Week 18)?
The value was 68.7 SFC per 50,000 cells.

What about the “Mean SFC” value (central memory T cells [2]; Week 9) of the same sequence?
Its value is 178.0 SFC per 50,000 cells.

And the “Mean SFC” value (central memory T cells [2]; Week 18)?
The value was 300.6 SFC per 50,000 cells.

What about the “net SFC” value (central memory T cells [2]; colon patient 551, Week 9) of the same sequence?
The value was 92.7 SFC per 50,000 cells.

What about the “net SFC” value (central memory T cells [2]; colon patient 551, Week 18) of the same sequence?
Its value is 68.7 SFC per 50,000 cells.

What about the “net SFC” value (central memory T cells [2]; colon patient 601, Week 9) of the same sequence?
Its value is 417.3 SFC per 50,000 cells.

What about the “net SFC” value (central memory T cells [2]; colon patient 601, Week 18) of the same sequence?
Its value is 133.7 SFC per 50,000 cells.

And the “net SFC” value (central memory T cells [2]; colon patient 602, Week 9)?
Its value is “—”.

What about the “net SFC” value (central memory T cells [2]; colon patient 602, Week 18) of the same sequence?
Its value is “—”.

And the “net SFC” value (central memory T cells [2]; colon patient 603, Week 9)?
The value was 32.7 SFC per 50,000 cells.

What about the “net SFC” value (central memory T cells [2]; colon patient 603, Week 18) of the same sequence?
The value was 8.0 SFC per 50,000 cells.

And the “net SFC” value (central memory T cells [2]; colon patient 604, Week 9)?
The value was 109.3 SFC per 50,000 cells.

What about the “net SFC” value (central memory T cells [2]; colon patient 604, Week 18) of the same sequence?
The value was 397.3 SFC per 50,000 cells.

And the “net SFC” value (central memory T cells [2]; colon patient 605, Week 9)?
Its value is 65.7 SFC per 50,000 cells.

And the “net SFC” value (central memory T cells [2]; colon patient 605, Week 18)?
Its value is “—”.

What about the “net SFC” value (central memory T cells [2]; colon patient 606, Week 9) of the same sequence?
Its value is 24.3 SFC per 50,000 cells.

What about the “net SFC” value (central memory T cells [2]; colon patient 606, Week 18) of the same sequence?
The value was 45.0 SFC per 50,000 cells.

What about the “net SFC” value (central memory T cells [2]; colon patient 607, Week 9) of the same sequence?
Its value is 593.3 SFC per 50,000 cells.

What about the “net SFC” value (central memory T cells [2]; colon patient 607, Week 18) of the same sequence?
Its value is 1648.0 SFC per 50,000 cells.

And the “net SFC” value (central memory T cells [2]; colon patient 608, Week 9)?
Its value is “—”.

And the “net SFC” value (central memory T cells [2]; colon patient 608, Week 18)?
Its value is 18.0 SFC per 50,000 cells.

And the “net SFC” value (central memory T cells [2]; colon patient 609, Week 9)?
Its value is 89.0 SFC per 50,000 cells.

What about the “net SFC” value (central memory T cells [2]; colon patient 609, Week 18) of the same sequence?
The value was 86.0 SFC per 50,000 cells.

What about the “% of patients with positive CTL/central memory T cell response” value (central memory T cells [3]; phase 2, month 9) of the same sequence?
Its value is 43%.

What about the “patients with positive CTL/central memory T cell response / patients tested” value (central memory T cells [3]; phase 2, month 9) of the same sequence?
Its value is 3/7.

And the “% of patients with positive CTL/central memory T cell response” value (central memory T cells [3]; phase 2, month 12)?
Its value is 50%.

What about the “patients with positive CTL/central memory T cell response / patients tested” value (central memory T cells [3]; phase 2, month 12) of the same sequence?
The value was 2/4.

What about the “% of patients with positive CTL/central memory T cell response” value (central memory T cells [3]; phase 2, week 9) of the same sequence?
The value was 64%.

What about the “patients with positive CTL/central memory T cell response / patients tested” value (central memory T cells [3]; phase 2, week 9) of the same sequence?
The value was 7/11.

What about the “% of patients with positive CTL/central memory T cell response” value (central memory T cells [3]; phase 2, week 18) of the same sequence?
Its value is 91%.

What about the “patients with positive CTL/central memory T cell response / patients tested” value (central memory T cells [3]; phase 2, week 18) of the same sequence?
The value was 10/11.

And the “% of patients with positive CTL/central memory T cell response” value (central memory T cells [3]; phase 2, week 30)?
The value was 33%.

What about the “patients with positive CTL/central memory T cell response / patients tested” value (central memory T cells [3]; phase 2, week 30) of the same sequence?
Its value is 2/6.
